Test results taken from US9872829B2, “Core sheath drug delivery devices” (Chemo Research, S.L., priority 2012, dated 2018).

Conditions: 21 days
Protocol: Etonogestrel (ETO) solubility in the hydrophilic polyurethane, Hydrothane AL 25-80A, was determined by evaluating its in-vitro elution (IVE) from core sheath IVRs containing ETO in the core at various loadings.
The core polymer was Hydrothane AL 25-80A and the sheath polymer EVA VA content 28% w/w.

Csat in Hydrothane AL 25-80A (concentration concluded to be below Csat) | SMILES
> 0.25% | C#C[C@]1(O)CC[C@H]2[C@@H]3CCc4cc(O)ccc4[C@H]3CC[C@@]21C [EE, Ethinyl Estradiol]
> 1.00% | C#C[C@]1(O)CC[C@H]2[C@@H]3CCC4=CC(=O)CC[C@@H]4[C@H]3C(=C)C[C@@]21CC [ETO, Etonogestrel]
